From the NIST ThermoML archive (doi:10.1016/j.tca.2013.03.008)
Where “and” joins values, the source holds several entries; their conditions need not be identical. Identical values can stand only once.

Experiments:
[1] = 101 kPa, Liquid; for viscosity: Capillary tube (Ostwald / Ubbelohde) method; for mass density: Vibrating tube method
[2] = xn = mol fraction of the nth substance listed; settings: 101 kPa, Liquid; for viscosity: Capillary tube (Ostwald / Ubbelohde) method; for mass density: Vibrating tube method

CCOC(=O)CCl [ethyl chloroethanoate]
[1]
Settings	mass density [kg/m3]	viscosity
298.15 K	1144.11	1.095 mPa·s
308.15 K	1131.46	0.934 mPa·s and 0.939 mPa·s
318.15 K	1118.74	0.816 mPa·s and 0.815 mPa·s

CCC(C)O (stereo unspecified) [butan-2-ol] + CCC(=O)CC
[2], x2 = 0
Settings	mass density [kg/m3]	viscosity [mPa·s]
298.15 K	802.62	2.998
308.15 K	794.13	2.17
318.15 K	785.22	1.476

CCC(C)O (stereo unspecified) [butan-2-ol]
[1]
Settings	mass density [kg/m3]	viscosity [mPa·s]
298.15 K	802.62	2.998
308.15 K	794.13	2.17
318.15 K	785.22	1.476

CCC(C)O (stereo unspecified) [butan-2-ol] + CCOC(=O)CCl
[2], x1 = 1
Settings	mass density [kg/m3]	viscosity [mPa·s]
298.15 K	802.62	2.998
308.15 K	794.13	2.17
318.15 K	785.22	1.476

CCC(=O)CC [pentan-3-one] + CCOC(=O)CCl
[2], x1 = 1
Settings	mass density [kg/m3]	viscosity [mPa·s]
298.15 K	809.38	0.442
308.15 K	799.55	0.398
318.15 K	789.63	0.362

CCC(=O)CC [pentan-3-one]
[1]
Settings	mass density [kg/m3]	viscosity [mPa·s]
298.15 K	809.38	0.442
308.15 K	799.55	0.398
318.15 K	789.63	0.362
